Test results taken from patent publication US20190174760A1, “N-ALKYLSULFONYL CONDENSED HETEROCYCLIC COMPOUND OR SALT THEREOF, INSECTICIDE COMPRISING THE COMPOUND, AND METHOD FOR USING THE INSECTICIDE” (Nihon Nohyaku Co., Ltd., priority 2016, published 2019).

How the values were obtained:
[1] = test system: Plutella xylostella; test: Insecticidal test on Plutella xylostella (dip of Chinese cabbage seedlings with laid eggs); type: in vivo; conditions: 144 h, seedlings with laid eggs dipped about 30 seconds, 25° C., 6 days after dip treatment, read-out: insecticidal efficacy (corrected mortality rate) on Plutella xylostella
Text: Insecticidal Test on Plutella xylostella
Adults of Plutella xylostella were released onto Chinese cabbage seedlings and allowed to lay eggs thereon. At 2 days after the release of the adults, the Chinese cabbage seedlings with laid eggs were dipped for about 30 seconds in agrochemical formulations diluted to 500 ppm, each of which contained a different compound represented by the general formula (1) of the present invention as an active ingredient. After air-dried, the seedlings were kept in a thermostatic chamber at 25° C. At 6 days after the dip treatment, the number of hatched larvae per plot was counted, the mortality rate was calculated according to the formula shown below, and the insecticidal efficacy was evaluated according to the criteria of Test Example 2. This test was conducted in triplicate using 10 adults of Plutella xylostella per plot.
Corrected mortality rate (%)=100×(Number of hatched larvae in a non-treatment plot−Number of hatched larvae in a treatment plot)/Number of hatched larvae in a non-treatment plot [Math. 3]

[2] = test system: Laodelphax striatellus; test: Insecticidal test on Laodelphax striatellus (rice seedling dip); type: in vivo; conditions: 192 h, rice seedlings dipped 30 seconds, 3rd-instar larvae, 8 days after inoculation, read-out: insecticidal efficacy (corrected mortality rate) on Laodelphax striatellus
Text: Insecticidal Test on Laodelphax striatellus
The compounds represented by the general formula (1) of the present invention or salts thereof were separately dispersed in water and diluted to 500 ppm. Rice plant seedlings (variety: Nihonbare) were dipped in the agrochemical dispersions for 30 seconds. After air-dried, each seedling was put into a separate glass test tube and inoculated with ten 3rd-instar larvae of Laodelphax striatellus, and then the glass test tubes were capped with cotton plugs. At 8 days after the inoculation, the numbers of surviving larvae and dead larvae were counted, the corrected mortality rate was calculated according to the formula shown below, and the insecticidal efficacy was evaluated according to the criteria shown below.
Corrected mortality rate (%)=100×(Survival rate in a non-treatment plot−Survival rate in a treatment plot)/Survival rate in a non-treatment plot [Math. 2]
A: the corrected mortality rate is 100%. B: the corrected mortality rate is 90 to 99%. C: the corrected mortality rate is 80 to 89%. D: the corrected mortality rate is 50 to 79%.

SMILES	mortality at 500 ppm [1]	mortality at 500 ppm [2]
CCS(=O)(=O)n1c(-c2nc3cc(C(F)(F)C(F)(F)F)nnc3n2C)cc2ccccc21 [Compound 1-33, 2-(1-ethylsulfonylindol-2-yl)-3-methyl-6-pentafluoroethyl-3H-imidazo[4,5-c]pyridazine]	100%	100%
CCS(=O)(=O)n1c(-c2nc3cc(C(F)(F)C(F)(F)F)nnc3n2C)cc2ccc(F)cc21 [Compound 1-65, 2-(1-ethylsulfonyl-6-fluoroindol-2-yl)-3-methyl-6-pentafluoroethyl-3H-imidazo[4,5-c]pyridazine]	100%	100%
CCS(=O)(=O)n1c(-c2nc3cc(C(F)(F)F)cnc3n2C)cc2cc(C(F)(F)F)ccc21 [Compound 2-11, 2-(1-ethylsulfonyl-5-trifluoromethylindol-2-yl)-3-methyl-6-trifluoromethyl-3H-imidazo[4,5-b]pyridine]	100%	100%
CCS(=O)(=O)n1c(-c2nc3cc(SC(F)(F)F)ccc3o2)cc2ccccc21 [Compound 3-1, 2-(1-ethylsulfonylindol-2-yl)-5-trifluoromethylthiobenzo[d]oxazole]	100%	–
